According to ChEMBL document CHEMBL6078652, “Discovery of Sporachelins by Genome Mining of a Micromonospora Strain” (J Nat Prod, 2024):
Calls of active or inactive are those of the source. No cut-off for these calls is given here.

How the values were obtained:
[1] = test system: LX-2; assay: Antifibrotic activity against TGFbeta-1 induced human LX-2 cells assessed as inhibition of ACTA2 mRNA expression at 1 uM incubated for 24 hrs by qRT-PCR analysis relative to control; type: functional; parameters: scale not given: the % may be the effect or the level left
[2] = test system: LX-2; assay: Antifibrotic activity against TGFbeta-1 induced human LX-2 cells assessed as inhibition of COL1A1 mRNA expression at 1 uM incubated for 24 hrs by qRT-PCR analysis relative to control; type: functional; parameters: scale not given: the % may be the effect or the level left
[3] = test system: NIH3T3; assay: Antifibrotic activity against TGFbeta-1 induced mouse NIH3T3 cells assessed as decrease in COL1A1 mRNA expression at 1 uM incubated for 24 hrs by qRT-PCR analysis relative to control; type: functional; parameters: scale not given: the % may be the effect or the level left
[4] = test system: Enterococcus faecium; assay: Antibacterial activity against Enterococcus faecium 310682 (VRE) assessed as bacterial growth inhibition incubated for 16 hrs in presence of brain heart infusion medium by broth microdilution method; type: functional, organism-based
[5] = test system: NIH3T3; assay: Antifibrotic activity against TGFbeta-1 induced mouse NIH3T3 cells assessed as decrease in Acta2 mRNA expression at 1 uM incubated for 24 hrs by qRT-PCR analysis relative to control; type: functional; parameters: scale not given: the % may be the effect or the level left
[6] = test system: Staphylococcus aureus; assay: Antibacterial activity against Staphylococcus aureus ATCC 29213 assessed as bacterial growth inhibition incubated for 16 hrs in presence of Muller-Hinton medium by broth microdilution method; type: functional, organism-based
[7] = test system: NIH3T3; assay: Antifibrotic activity against TGFbeta-1 induced mouse NIH3T3 cells assessed as decrease in COL1A1 mRNA expression at 5 uM incubated for 24 hrs by qRT-PCR analysis relative to control; type: functional; parameters: scale not given: the % may be the effect or the level left
[8] = test system: LX-2; assay: Antifibrotic activity against TGFbeta-1 induced human LX-2 cells assessed as inhibition of TGFB1 mRNA expression at 1 uM incubated for 24 hrs by qRT-PCR analysis relative to control; type: functional; parameters: scale not given: the % may be the effect or the level left
[9] = test system: Klebsiella pneumoniae; assay: Antibacterial activity against Klebsiella pneumoniae ATCC 10031 assessed as bacterial growth inhibition incubated for 16 hrs in presence of Muller-Hinton medium by broth microdilution method; type: functional, organism-based
[10] = test system: LX-2; assay: Antifibrotic activity against TGFbeta-1 induced human LX-2 cells assessed as inhibition of TGFB1 mRNA expression incubated for 24 hrs by qRT-PCR analysis; type: functional, cell-based; conditions: dose 1-5 µM
[11] = test system: Enterococcus faecalis; assay: Antibacterial activity against Enterococcus faecalis ATCC 33186 assessed as bacterial growth inhibition incubated for 16 hrs in presence of brain heart infusion medium by broth microdilution method; type: functional, organism-based
[12] = test system: LX-2; assay: Antifibrotic activity against TGFbeta-1 induced human LX-2 cells assessed as inhibition of ACTA2 mRNA expression incubated for 24 hrs by qRT-PCR analysis; type: functional, cell-based; conditions: dose 1-5 µM
[13] = test system: Pseudomonas aeruginosa; assay: Antibacterial activity against Pseudomonas aeruginosa 2774 assessed as bacterial growth inhibition incubated for 16 hrs in presence of Muller-Hinton medium by broth microdilution method; type: functional, organism-based
[14] = test system: Escherichia coli; assay: Antibacterial activity against Escherichia coli ATCC 25922 assessed as bacterial growth inhibition incubated for 16 hrs in presence of Muller-Hinton medium by broth microdilution method; type: functional, organism-based
[15] = test system: LX-2; assay: Cytotoxicity against human LX-2 cells assessed as reduction in cell viability at 200 uM incubated for 24 hrs by CCK-8 assay; type: toxicity, cell-based; conditions: lx-2, 24 h
[16] = test system: Escherichia coli; assay: Antibacterial activity against Escherichia coli ATCC 35218 assessed as bacterial growth inhibition incubated for 16 hrs in presence of Muller-Hinton medium by broth microdilution method; type: functional, organism-based
[17] = test system: LX-2; assay: Antifibrotic activity against TGFbeta-1 induced human LX-2 cells assessed as inhibition of COL1A1 mRNA expression at 5 uM incubated for 24 hrs by qRT-PCR analysis relative to control; type: functional; parameters: scale not given: the % may be the effect or the level left
[18] = test system: Staphylococcus aureus; assay: Antibacterial activity against Staphylococcus aureus ATCC 33591 assessed as bacterial growth inhibition incubated for 16 hrs in presence of Muller-Hinton medium by broth microdilution method; type: functional, organism-based
[19] = test system: LX-2; assay: Antifibrotic activity against TGFbeta-1 induced human LX-2 cells assessed as inhibition of ACTA2 mRNA expression at 5 uM incubated for 24 hrs by qRT-PCR analysis relative to control; type: functional; parameters: scale not given: the % may be the effect or the level left
[20] = test system: LX-2; assay: Antifibrotic activity against TGFbeta-1 induced human LX-2 cells assessed as inhibition of COL1A1 mRNA expression incubated for 24 hrs by qRT-PCR analysis; type: functional, cell-based; conditions: dose 1-5 µM
[21] = test system: Acinetobacter baumannii; assay: Antibacterial activity against Acinetobacter baumannii ATCC 19606 assessed as bacterial growth inhibition incubated for 16 hrs in presence of Muller-Hinton medium by broth microdilution method; type: functional, organism-based
[22] = test system: Pseudomonas aeruginosa; assay: Antibacterial activity against Pseudomonas aeruginosa ATCC 27853 assessed as bacterial growth inhibition incubated for 16 hrs in presence of Muller-Hinton medium by broth microdilution method; type: functional, organism-based
[23] = test system: Klebsiella pneumoniae; assay: Antibacterial activity against Klebsiella pneumoniae ATCC 700603 assessed as bacterial growth inhibition incubated for 16 hrs in presence of Muller-Hinton medium by broth microdilution method; type: functional, organism-based
[24] = test system: LX-2; assay: Antifibrotic activity against TGFbeta-1 induced human LX-2 cells assessed as inhibition of TGFB1 mRNA expression at 5 uM incubated for 24 hrs by qRT-PCR analysis relative to control; type: functional; parameters: scale not given: the % may be the effect or the level left
[25] = test system: Acinetobacter baumannii; assay: Antibacterial activity against Acinetobacter baumannii 2799 assessed as bacterial growth inhibition incubated for 16 hrs in presence of Muller-Hinton medium by broth microdilution method; type: functional, organism-based
[26] = test system: NIH3T3; assay: Antifibrotic activity against TGFbeta-1 induced mouse NIH3T3 cells assessed as decrease in Acta2 mRNA expression at 5 uM incubated for 24 hrs by qRT-PCR analysis relative to control; type: functional; parameters: scale not given: the % may be the effect or the level left
[27] = target: T1, Polyunsaturated fatty acid 5-lipoxygenase (Homo sapiens) (UniProt P09917); assay: Inhibition of human 5-LO at 2 uM incubated for 15 mins in presence of ATP by measuring fluorescence intensity relative to control
T1 sequence (whole entry): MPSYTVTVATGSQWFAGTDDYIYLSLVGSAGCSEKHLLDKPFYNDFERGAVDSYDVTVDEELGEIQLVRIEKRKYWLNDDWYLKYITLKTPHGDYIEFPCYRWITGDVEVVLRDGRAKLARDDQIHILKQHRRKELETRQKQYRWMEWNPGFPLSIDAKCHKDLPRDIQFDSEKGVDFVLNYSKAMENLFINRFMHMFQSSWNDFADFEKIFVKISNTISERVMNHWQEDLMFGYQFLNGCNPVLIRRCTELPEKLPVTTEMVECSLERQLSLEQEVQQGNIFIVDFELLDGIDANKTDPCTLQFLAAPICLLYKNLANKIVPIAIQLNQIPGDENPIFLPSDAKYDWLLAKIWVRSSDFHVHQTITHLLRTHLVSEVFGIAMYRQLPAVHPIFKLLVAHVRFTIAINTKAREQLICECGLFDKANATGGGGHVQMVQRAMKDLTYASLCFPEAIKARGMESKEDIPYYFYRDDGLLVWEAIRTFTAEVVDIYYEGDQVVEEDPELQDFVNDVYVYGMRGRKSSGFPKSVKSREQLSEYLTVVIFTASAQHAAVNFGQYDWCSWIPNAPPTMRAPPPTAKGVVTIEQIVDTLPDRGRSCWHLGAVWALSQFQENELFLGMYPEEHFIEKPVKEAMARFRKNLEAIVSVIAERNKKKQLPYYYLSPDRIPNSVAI

[28] = test system: Bacillus subtilis; assay: Antibacterial activity against Bacillus subtilis CPCC 100029 assessed as bacterial growth inhibition incubated for 16 hrs in presence of Muller-Hinton medium by broth microdilution method; type: functional, organism-based

O=C(NCCCC[C@@H](CO)NC(=O)c1cccc(O)c1O)c1cccc(O)c1O
Activity [1]: 87% | Activity [2]: 39% | Activity [3]: 9% | Activity [4]: inactive | Activity [5]: 70% | Activity [6]: inactive | Activity [7]: 78% | Activity [8]: 60% | Activity [9]: inactive | Activity [10]: Dose-dependent-effect | Activity [11]: inactive | Activity [12]: Dose-dependent-effect | Activity [13]: inactive | Activity [14]: inactive | Activity [15]: Non-toxic | Activity [16]: inactive | Activity [17]: 82% | Activity [18]: inactive | Activity [19]: 136% | Activity [20]: Dose-dependent-effect | Activity [21]: inactive | Activity [22]: inactive | Activity [23]: inactive | Activity [24]: 74% | Activity [25]: inactive | Activity [26]: 108% | inhibition [27]: 67% | Activity [28]: inactive

O=C(Cc1ccc(O)cc1)OC[C@H](CCCCNC(=O)c1cccc(O)c1O)NC(=O)c1cccc(O)c1O
Activity [1]: 61% | Activity [2]: 29% | Activity [3]: 46% | Activity [4]: inactive | Activity [5]: 80% | Activity [6]: inactive | Activity [7]: 68% | Activity [8]: 50% | Activity [9]: inactive | Activity [10]: Dose-dependent-effect | Activity [11]: inactive | Activity [12]: Dose-dependent-effect | Activity [13]: inactive | Activity [14]: inactive | Activity [15]: Non-toxic | Activity [16]: inactive | Activity [17]: 81% | Activity [18]: inactive | Activity [19]: 136% | Activity [20]: Dose-dependent-effect | Activity [21]: inactive | Activity [22]: inactive | Activity [23]: inactive | Activity [24]: 81% | Activity [25]: inactive | Activity [26]: 119% | inhibition [27]: 77% | Activity [28]: inactive

CC(C)C(=O)OC[C@H](CCCCNC(=O)c1cccc(O)c1O)NC(=O)c1cccc(O)c1O
Activity [1]: 92% | Activity [2]: 49% | Activity [3]: 44% | Activity [4]: inactive | Activity [5]: 75% | Activity [6]: inactive | Activity [7]: 79% | Activity [8]: 65% | Activity [9]: inactive | Activity [10]: Dose-dependent-effect | Activity [11]: inactive | Activity [12]: Dose-dependent-effect | Activity [13]: inactive | Activity [14]: inactive | Activity [15]: Non-toxic | Activity [16]: inactive | Activity [17]: 93% | Activity [18]: inactive | Activity [19]: 138% | Activity [20]: Dose-dependent-effect | Activity [21]: inactive | Activity [22]: inactive | Activity [23]: inactive | Activity [24]: 72% | Activity [25]: inactive | Activity [26]: 122% | inhibition [27]: 80% | Activity [28]: inactive

CC(=O)OC[C@H](CCCCNC(=O)c1cccc(O)c1O)NC(=O)c1cccc(O)c1O
Activity [1]: 62% | Activity [2]: 35% | Activity [3]: 60% | Activity [4]: inactive | Activity [5]: 95% | Activity [6]: inactive | Activity [7]: 70% | Activity [8]: 36% | Activity [9]: inactive | Activity [10]: Dose-dependent-effect | Activity [11]: inactive | Activity [12]: Dose-dependent-effect | Activity [13]: inactive | Activity [14]: inactive | Activity [15]: Non-toxic | Activity [16]: inactive | Activity [17]: 81% | Activity [18]: inactive | Activity [19]: 132% | Activity [20]: Dose-dependent-effect | Activity [21]: inactive | Activity [22]: inactive | Activity [23]: inactive | Activity [24]: 70% | Activity [25]: inactive | Activity [26]: 129% | inhibition [27]: 78% | Activity [28]: inactive

CCC(=O)OC[C@H](CCCCNC(=O)c1cccc(O)c1O)NC(=O)c1cccc(O)c1O
Activity [1]: 105% | Activity [2]: 50% | Activity [3]: 35% | Activity [4]: inactive | Activity [5]: 61% | Activity [6]: inactive | Activity [7]: 81% | Activity [8]: 57% | Activity [9]: inactive | Activity [10]: Dose-dependent-effect | Activity [11]: inactive | Activity [12]: Dose-dependent-effect | Activity [13]: inactive | Activity [14]: inactive | Activity [15]: Non-toxic | Activity [16]: inactive | Activity [17]: 92% | Activity [18]: inactive | Activity [19]: 139% | Activity [20]: Dose-dependent-effect | Activity [21]: inactive | Activity [22]: inactive | Activity [23]: inactive | Activity [24]: 73% | Activity [25]: inactive | Activity [26]: 117% | inhibition [27]: 75% | Activity [28]: inactive

O=C(Cc1ccccc1)OC[C@H](CCCCNC(=O)c1cccc(O)c1O)NC(=O)c1cccnc1
Activity [1]: 3.1% | Activity [2]: -3.5% | Activity [3]: 7.6% | Activity [4]: inactive | Activity [5]: 20% | Activity [6]: inactive | Activity [7]: 31% | Activity [8]: 15% | Activity [9]: inactive | Activity [11]: inactive | Activity [13]: inactive | Activity [14]: inactive | Activity [15]: Non-toxic | Activity [16]: inactive | Activity [17]: 29% | Activity [18]: inactive | Activity [19]: 68% | Activity [21]: inactive | Activity [22]: inactive | Activity [23]: inactive | Activity [24]: 40% | Activity [25]: inactive | Activity [26]: 55% | inhibition [27]: 66% | Activity [28]: inactive
